Experiments:
[1] = tested on: Male C57BL/6N mice; assay: Triglyceride absorption suppression after fat loading (in vivo DGAT1 inhibitory effect); conditions: Mus musculus, po; dose of 10 mg/kg or lower, orally administered, mice fasted overnight, plasma triglyceride after fat loading; read-out: Triglyceride absorption suppressive activity
Description: The DGAT1 enzyme is important for the digestion and absorption of triglycerides, and the inhibition of DGAT1 in the small intestine suppresses the absorption of triglycerides. The in vivo activity of its DGAT1 inhibitory effect was evaluated with the suppressed absorption of triglycerides after fat loading as an index. Male C57BL/6N mice (7-12 weeks old, body weight: 17-25 g, Charles River Laboratories Japan Inc.) fasted overnight were assigned to Vehicle group 1, Vehicle group 2, and each test compound group, to which a vehicle (0.5% methylcellulose) or each test compound (1 to 10 mg/kg) suspended in vehicle was orally administered (5 mL/kg). After a given time, a lipoprotein lipase inhibitor (Pluronic-F127: Sigma-Aldrich Corp., 1 g/kg, 20% by weight dissolved in saline) was intraperitoneally administered (5 mL/kg) to each group. Immediately thereafter, distilled water for the Vehicle group 1 or a 20% fat-containing emulation (Intralipid 20%: TERUMO CORP., Japan) for the Vehicle group 2 and the compound groups were orally administered thereto (0.2 mL/mouse). After a given time of 1 to 4 hours after administration, blood was collected from the tail vein or the right ventricle, and plasma was immediately separated and collected. Then, the triglyceride concentration in plasma was measured using a commercially available kit (Triglyceride E-Test Wako: Wako Pure Chemical Industries, Ltd.). In this method, the administration of the lipoprotein lipase inhibitor suppresses the hydrolysis of triglycerides in the blood such that the triglycerides are accumulated in the blood. These triglycerides are derived from two origins: exogenous triglycerides absorbed in the gastrointestinal tract and endogenous triglycerides released from the liver. The triglyceride absorption suppressive activity of each test compound was calculated based on the equation shown below by removing the influence of the endogenous triglycerides. In this context, each test compound was separately confirmed to have no influence on the concentration of the endogenous triglycerides.
Triglyceride absorption suppressive activity (%)=100−[(Triglyceride concentration of each test compound group)−(Triglyceride concentration of Vehicle group 1)]/[(Triglyceride concentration of Vehicle group 2)−(Triglyceride concentration of Vehicle group 1)]×100

[2] = target: T1, DGAT1 enzyme (Homo sapiens, UniProt O75907); assay: DGAT1 inhibitory activity test; assay type: biochemical; conditions: test compound concentration of 0.05 μg/ml; read-out: Inhibitory Rate
T1 construct: made in house
T1 sequence (O75907 1-488): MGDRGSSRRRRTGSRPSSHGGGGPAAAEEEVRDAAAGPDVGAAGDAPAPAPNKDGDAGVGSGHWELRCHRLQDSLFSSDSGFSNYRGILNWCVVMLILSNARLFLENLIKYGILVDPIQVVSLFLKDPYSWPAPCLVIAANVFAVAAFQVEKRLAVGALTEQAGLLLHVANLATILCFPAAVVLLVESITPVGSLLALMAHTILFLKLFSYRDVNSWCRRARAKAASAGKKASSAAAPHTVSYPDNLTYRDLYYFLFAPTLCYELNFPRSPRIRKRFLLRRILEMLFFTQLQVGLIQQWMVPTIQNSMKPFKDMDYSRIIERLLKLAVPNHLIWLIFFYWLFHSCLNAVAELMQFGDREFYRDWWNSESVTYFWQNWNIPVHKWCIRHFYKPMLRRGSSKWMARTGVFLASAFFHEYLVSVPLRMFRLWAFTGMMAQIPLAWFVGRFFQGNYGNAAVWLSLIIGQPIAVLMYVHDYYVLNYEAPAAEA
Description: DGAT1 enzyme was prepared and stored according to the method described in US2007/0249620.
(2) DGAT1 Inhibitory Activity Test
A reaction solution having the following composition was incubated at room temperature (23° C.) for 30 minutes: 175 mM Tris-HCl (pH 8.0), 8 mM MgCl2, 1 mg/ml BSA, 0.3 mM 1,2-dioleoyl-sn-glycerol (10-fold concentration of EtOH solution, 10% added), 10 μM [^14C]-oleoyl-CoA (approximately 50 mCi/mmol), 0.5% Triton X-100, the DGAT1 enzyme (10 μg) obtained in Test Example 1(1), and a test compound or vehicle (DMSO/MeOH, 7:3 solution, 5% added), […] in total. A reaction stop solution ([…] consisting of isopropanol/1-heptane/water (80:20:2, v/v/v) was added to the reaction solution and stirred. Subsequently, water (30 μl) and 1-heptane (100 μl) were added thereto and stirred. The 1-heptane layer (50 μl) was spotted onto a TLC plate and developed with a developing solvent consisting of 1-hexane/diethyl ether/acetic acid (85:15:1, v/v/v). The radioactivity of the triglyceride fraction was quantified using BAS2000 Bio Image Analyzer (FUJIFILM) and compared with the control. The inhibitory activity of the test compound was calculated according to the formula shown below. In this context, the radioactivity at no reaction (0 minute incubation) was used as background. Inhibitory Rate=100−[(Radioactivity of sample supplemented with test compound)−(Background)]/[(Radioactivity of control)−(Background)]×100

Compound | inhibition at 0.05 µg/mL [2] [%] | inhibition in vivo at up to 10 mg/kg [1] [%]
O=C(O)C[C@H]1CC[C@H](OC(=O)N2CCc3cc(NC(=O)Nc4ccccc4F)ccc3C2)C1 (relative stereo) [Example 7, trans-6-[3-(2-fluoro-phenyl)-ureido]-3,4-dihydro-1H-isoquinoline-2-carboxylic acid 3-carboxymethyl-cyclopentyl ester] | ≥ 50 | ≥ 60
C[C@@H]1C[C@H](CC(=O)O)CC[C@H]1OC(=O)N1CCc2cc(NC(=O)Nc3ccccc3F)ccc2C1 (relative stereo) [Example 16, 6-[3-(2-fluoro-phenyl)-ureido]-3,4-dihydro-1H-isoquinoline-2-carboxylic acid t-4-carboxymethyl-t-2-methyl-r-1-cyclohexyl ester] | ≥ 50 | ≥ 60
CCOc1cccc(NC(=O)Nc2ccc3c(c2)CCN(C(=O)O[C@@H]2CC[C@@H](CC(=O)O)C[C@H]2C)C3)c1 (relative stereo) [Example 99, 6-[3-(3-ethoxy-phenyl)-ureido]-3,4-dihydro-1H-isoquinoline-2-carboxylic acid t-4-carboxymethyl-t-2-methyl-r-1-cyclohexyl ester] | ≥ 50 | ≥ 60
O=C(Nc1ccc2c(c1)CCN(C(=O)O[C@H]1CC[C@H](CC(=O)N3CCCC3C(=O)O)CC1)C2)Nc1ccccc1F (stereo partly drawn) [Example 38, trans-6-[3-(2-fluoro-phenyl)-ureido]-3,4-dihydro-1H-isoquinoline-2-carboxylic acid 4-[2-(2-carboxy-pyrrolidin-1-yl)-2-oxo-ethyl]-cyclohexyl ester] | ≥ 50 | –
O=C(Nc1ccc2c(c1)CCN(C(=O)O[C@H]1CC[C@H](Cc3nc(C(=O)O)co3)CC1)C2)Nc1ccccc1F [Example 39, trans-6-[3-(2-fluoro-phenyl)-ureido]-3,4-dihydro-1H-isoquinoline-2-carboxylic acid 4-(4-carboxy-oxazol-2-ylmethyl)-cyclohexyl ester] | ≥ 50 | –
O=C(C[C@H]1CC[C@H](OC(=O)N2CCc3cc(NC(=O)Nc4ccccc4F)ccc3C2)CC1)Nc1nnn[nH]1 [Example 40, trans-6-[3-(2-fluoro-phenyl)-ureido]-3,4-dihydro-1H-isoquinoline-2-carboxylic acid 4-[(1H-tetrazol-5-ylcarbamoyl)-methyl]-cyclohexyl ester] | ≥ 50 | –
O=C(Nc1ccc2c(c1)CCN(C(=O)O[C@H]1CC[C@H](CC(=O)OC[C@H](O)CO)CC1)C2)Nc1ccccc1F [Example 46, trans-6-[3-(2-fluoro-phenyl)-ureido]-3,4-dihydro-1H-isoquinoline-2-carboxylic acid 4-((R)-2,3-dihydroxy-propoxycarbonylmethyl)-cyclohexyl ester] | – | ≥ 60
CC(C)NC(=O)Nc1ccc2c(c1)CCN(C(=O)O[C@H]1CC[C@H](CC(=O)O)CC1)C2 [Example 81, trans-6-(3-isopropyl-ureido)-3,4-dihydro-1H-isoquinoline-2-carboxylic acid 4-carboxymethyl-cyclohexyl ester] | – | ≥ 60
O=C(O)C[C@H]1CC[C@H](OC(=O)N2CCc3cc(NC(=O)Nc4cnccn4)ccc3C2)CC1 [Example 94, trans-6-(3-pyrazin-2-yl-ureido)-3,4-dihydro-1H-isoquinoline-2-carboxylic acid 4-carboxymethyl-cyclohexyl ester] | ≥ 50 | –

Continued, in another order:

inhibition at 0.05 µg/mL [2] [%] | Compound | inhibition in vivo at up to 10 mg/kg [1] [%]
≥ 50 | C[C@H]1C[C@H](CC(=O)O)CC[C@H]1OC(=O)N1CCc2cc(NC(=O)Nc3ccccc3F)ccc2C1 (relative stereo) [Example 15, 6-[3-(2-fluoro-phenyl)-ureido]-3,4-dihydro-1H-isoquinoline-2-carboxylic acid t-4-carboxymethyl-c-2-methyl-r-1-cyclohexyl ester] | ≥ 60
≥ 50 | CCOc1cccc(NC(=O)Nc2ccc3c(c2)CCN(C(=O)O[C@@H]2CC[C@@H](CC(=O)O)C[C@@H]2C)C3)c1 (relative stereo) [Example 100, 6-[3-(3-ethoxy-phenyl)-ureido]-3,4-dihydro-1H-isoquinoline-2-carboxylic acid t-4-carboxymethyl-c-2-methyl-r-1-cyclohexyl ester] | ≥ 60
≥ 50 | COc1cccc(NC(=O)Nc2ccc3c(c2)CCN(C(=O)O[C@@H]2CC[C@@H](CC(=O)O)C[C@H]2C)C3)c1 (relative stereo) [Example 101, 6-[3-(3-methoxy-phenyl)-ureido]-3,4-dihydro-1H-isoquinoline-2-carboxylic acid t-4-carboxymethyl-t-2-methyl-r-1-cyclohexyl ester] | ≥ 60
≥ 50 | O=C(Nc1ccc2c(c1)CCN(C(=O)O[C@H]1CC[C@H](Cc3cc(O)n[nH]3)CC1)C2)Nc1ccccc1F [Example 42, trans-6-[3-(2-fluoro-phenyl)-ureido]-3,4-dihydro-1H-isoquinoline-2-carboxylic acid 4-(5-hydroxy-2H-pyrazol-3-ylmethyl)-cyclohexyl ester] | –
≥ 50 | C[S+]([O-])c1cccc(NC(=O)Nc2ccc3c(c2)CCN(C(=O)O[C@H]2CC[C@H](CC(=O)O)CC2)C3)c1 (stereo partly drawn) [Example 65, trans-6-[3-(3-methanesulfinyl-phenyl)-ureido]-3,4-dihydro-1H-isoquinoline-2-carboxylic acid 4-carboxymethyl-cyclohexyl ester] | –
≥ 50 | COc1ccc(NC(=O)Nc2ccc3c(c2)CCN(C(=O)O[C@H]2CC[C@H](CC(=O)O)CC2)C3)cc1 [Example 79, trans-6-[3-(4-methoxy-phenyl)-ureido]-3,4-dihydro-1H-isoquinoline-2-carboxylic acid 4-carboxymethyl-cyclohexyl ester] | –
≥ 50 | O=C(O)C[C@H]1CC[C@H](OC(=O)N2CCc3cc(NC(=O)Nc4cncc(Cl)c4)ccc3C2)CC1 [Example 93, trans-6-[3-(5-chloro-pyridin-3-yl)-ureido]-3,4-dihydro-1H-isoquinoline-2-carboxylic acid 4-carboxymethyl-cyclohexyl ester] | –
≥ 50 | O=C(O)C[C@H]1CC[C@H](OC(=O)N2CCc3cc(Nc4nc5ccccc5s4)ccc3C2)CC1 [Example 98, trans-6-(benzothiazol-2-ylamino)-3,4-dihydro-1H-isoquinoline-2-carboxylic acid 4-carboxymethyl-cyclohexyl ester] | –
≥ 50 | COc1cccc(NC(=O)Nc2ccc3c(c2)CCN(C(=O)C(C)C2CCC(CC(=O)O)CC2)C3)c1 (stereo not drawn) [Example 106, [4-(2-{6-[3-(3-methoxy-phenyl)-ureido]-3,4-dihydro-1H-isoquinolin-2-yl}-1-methyl-2-oxy-ethyl)-cyclohexyl]-acetic acid] | –

From patent US8735425B2, “Tetrahydroisoquinoline derivative” (Daiichi Sankyo Company, Limited, priority 2008, dated 2014)
